Results: ChEMBL document CHEMBL5729022, “Modulators of methyl modifying enzymes, compositions and uses thereof” (2022)

Test: Biochemical Assay: EZH2 biochemical assay (IC50): Compound potencies were assessed through incorporation of 3H-SAM into a biotinylated H3 peptide. Specifically, 30 pM PRC2 containing wt EZH2 (pentameric complex prepared in-house) was pre-incubated with 450 nM SAM, 450 nM 3H-SAM, 2 μM H3K27me3 activating peptide (H2N-RKQLATKAAR(Kme3)SAPATGGVKKP-amide) and compounds (as 10 point duplicate dose response titrations in DMSO, final assay 0.8% DMSO (v/v)) for 3-5 h in 50 mM Tris (pH 8.5), 1 mM DTT, 0.07 mM Brij-35, 0.1% BSA, and 0.8% DMSO in a total volume of 12.5 μl. Reaction was initiated with biotinylated H3 substrate peptide (H2N-RKQLATKAAR(Kmel)SAPATGGVKKP-NTPEGBiot) as a 2 μM stock in 12.5 μl of buffer and allowed to react at room temperature for 18-22 h. Quenching was accomplished by addition of 20 μl of STOP solution (50 mM Tris (pH 8.5), 200 mM EDTA, 2 mM SAH). 35 μl of the quenched solution was transferred to streptavidin coated FlashPlates (PerkinElmer), incubated 1-2 h, washed, and read in a TopCount Reader (PerkinElmer). IC50s were calculated in Genedata Screener using non-linear least square four parameter fits, where the four parameters were IC50, Hill slope, pre-transitional baseline (0% INH), and post-transitional baseline (100% INH).

Question: Which IC50 does the source give for `Cc1cc(Cl)c(CNC(=O)c2cc(Cl)c3c(c2C)OC(C)(C2CCN(CC(F)(F)F)CC2)O3)c(=O)[nH]1` (single isomer, unassigned) here?
Answer: > 10 nM
